Laboratory results taken from patent US20240085429A1, “ALTERING PROTEIN FUNCTION BY PHARMACOLOGICAL TARGETING OF MEMBRANE DOMAINS” (University of Virginia Patent Foundation, priority 2021, published 2024).

System: GPMVs isolated from HeLa cells
Test: High-throughput screen of the Cayman bioactive lipid library for effects on GPMV phase behavior (% phase separated vesicles, NBD-DSPE phase preference)
Design: species or system human
Conditions: HeLa GPMVs, RT; for Effect on % phase separated vesicles: final drug concentration 1 μM, NBD-DSPE channel; for % phase separated z-score / Pordered z-score: Table 4; for % phase separated z-score / Pordered z-score / Effect on Pang(ϕ): final 1 μM; for Pordered z-score: NBD-DSPE; for Effect on Pang(ϕ): NBD-DSPE raft phase preference
Description: This approach is not practical for high throughput screening applications, which typically are performed at a single temperature. Changes in the percentage of phase-separated GPMVs were monitored at a single temperature in response to the addition of small molecules as a surrogate for measuring Tmisc directly (FIG. 1A). This approach requires that a significant fraction of GPMVs are phase separated under control conditions, such that experimentally-induced changes can be readily detected.
In phase separated vesicles these markers are enriched in their preferred domains, such that a given vesicle contains a co-existing NBD-DSPE-rich phase and a DiD-rich phase. In contrast, NBD-DSPE and DiD colocalize in a single uniform phase in GPMVs that are not phase separated. We also optimized conditions to isolate and plate GPMVs in multi-well plates.
To provide proof-of-concept, the Cayman lipid library containing ˜850 bioactive lipid-like compounds in the Vanderbilt High-throughput Screening Facility was screened, using […] of each compound across three independent screens. All screens were carried out using an automated microscope/high-content imaging system and robotic plate handler at RT. […] Compounds were initially scored based on their capacity to alter the percentage of phase separated vesicles (FIG. 2A).
HeLa cells were obtained from ATCC (cat #CCL-2) and cultured at 37° C. in 5% CO2 in a humidified tissue culture incubator. […] In brief, cells were plated in 150 mm tissue culture dishes the day before the experiment, to yield a confluence of 70-80% the day of the experiment. To generate GPMVs, cells were rinsed twice in 10 ml of GPMV buffer (2 mM DTT, 25 mM formaldehyde, 150 mM NaCl, 10 mM HEPES, 2 mM CaCl2), pH=7.4) and subsequently incubated in 12 ml of GPMV buffer at 37° C. with gentle shaking at 70 rpm for 1.5 h. The raft marker NBD-DSPE (1,2-distearoyl-sn-glycero-3-phosphoethanolamine-N-(7-nitro-2-1,3-benzoxadiazol-4-yl; Avanti Polar Lipids) and the non-raft marker DiD (1,1′-dioctadecyl-3,3,3′,3′-tetramethylindodicarbocyanine perchlorate; cat #D307 Thermo Scientific) were added from stock solutions in ethanol to the GPMV suspension at final concentrations of 5-6 μg/ml and 1 μg/ml, respectively, for the initial screenings. For some experiments, cells were prelabelled with 5 μg/ml DiD for 8 min at 4° C. and washed several times prior to GPMVs generation. Screening was performed the same day that GPMVs were generated.
[…] GPMVs suspension in GPMV buffer was then added to each well of a 96-well plate to obtain a final drug concentration of 1 μM. The GPMVs were allowed to settle to the bottom of the plates for 1.5 h prior to imaging. Samples were prepared and imaged at RT. The screen was repeated on three different days using three separately prepared batches of GPMVs (3 biological replicates).
Image acquisition was performed with an ImageXpress Micro XL automated microscope (Molecular Devices) using a Nikon 40X 0.6 NA Super Plan Fluor ELWD objective and a Lumencor Sola solid-state light source. Laser autofocus was employed at each site to obtain the best focus z-plane for each channel. […] Sixteen sites were captured per well using a 4.2 MP widefield scientific cMOS camera with a camera binning of 1. Each plate took approximately 1.3 h to image. Multiple plates were loaded to a plate carousel (ThermoScientific), shuttled to/from the ImageXpress via a ThermoScientific CRS F3 robot arm, and automatically run through the Momentum scheduling software (Thermo). To analyze the data, images and metadata were exported as TIFF files and subjected to image analysis using a custom MATLAB-based program as described below.

With CN(C)S(=O)(=O)c1ccc2c(c1)C(=Cc1cc3c([nH]1)CCCC3)C(=O)N2 [SU6656, 2,3-dihydro-N,N-dimethyl-2-oxo-3-[(4,5,6,7-tetrahydro-1H-indol-2-yl)methylene]-1H-indole-5-sulfonamide] the “Effect on % phase separated vesicles” value was “↓”, the “% phase separated z-score” value was −2.06 and the Pordered z-score was −0.42.

CCCCCCCCCCCC1NC(C(=O)O)CS1 (stereo not shown) [CAY10444, 2-undecyl-thiazolidine-4-carboxylic acid] was tested, and the “Effect on Pang(ϕ)” value was “↓”, the “% phase separated z-score” value was −1.61 and the Pordered z-score was −2.04.

In the case of CCCCCCCCCCCCCCCCOC[C@H](COP(=O)([O-])OCC[N+](C)(C)C)OC(=O)NC [Methylcarbamyl PAF C-16], the “Effect on Pang(ϕ)” value is reported as “↑”, the “% phase separated z-score” value is reported as −0.58 and the Pordered z-score is reported as 2.20.

With CCCCCCCC/C=C\CCCCCCCC(=O)N[C@H](CO)c1ccc(O)cc1 [OMDM-1, (S)-N-(1-(4-hydroxyphenyl)-2-hydroxyethyl) oleamide] the “Effect on % phase separated vesicles” value was “↓”, the “% phase separated z-score” value was −2.62 and the Pordered z-score was −0.54.

COc1ccc(-c2nc(C(=O)N3CCN(C)CC3)sc2-c2ccc(OC)cc2)cc1.Cl [FR122047 (hydrochloride), 1-[[4,5-bis(4-methoxyphenyl)-2-thiazolyl]carbonyl]-4-methyl-piperazine, monohydrochloride] was tested, and the “Effect on Pang(ϕ)” value was “↓”, the “% phase separated z-score” value was 0.12 and the Pordered z-score was −2.03.

With CCCCCCCCCCCCC/C=C/[C@@H](O)[C@H](CO)NC(=O)CCCCCCC [C8 Ceramide (d18:1/8:0)] the “Effect on % phase separated vesicles” value was “↓”, the “% phase separated z-score” value was −2.87 and the Pordered z-score was −0.72.

For Br.CCSC(=N)N [S-ethyl Isothiourea (hydrobromide)], the “Effect on Pang(ϕ)” value was “↑”, the “% phase separated z-score” value was 0.85 and the Pordered z-score was 2.57.

With CCCCCCCCCCCCCCOc1ccc(C(=O)O)o1 [TOFA, 5-(Tetradecyloxy)-2-furancarboxylic acid] the “Effect on % phase separated vesicles” value was “↓”, the “% phase separated z-score” value was −3.41 and the Pordered z-score was −1.20.

With CCCCCCCCCCCCCCCC(=O)NCCS(=O)(=O)O [N-Palmitoyl Taurine] the “Effect on % phase separated vesicles” value was “↑”, the “% phase separated z-score” value was 2.19 and the Pordered z-score was 1.66.

In the case of CCCCCCCCCCCCCCCCOCC(COP(=O)([O-])OCC[N+](C)(C)C)SC(C)=O (stereo not shown) [2-thio-PAF, 1-O-hexadecyl-2-deoxy-2-thio-S-acetyl-sn-glyceryl-3-phosphorylcholine], the “Effect on % phase separated vesicles” value is reported as “↓”, the “% phase separated z-score” value is reported as −3.15 and the Pordered z-score is reported as −0.72.

In the case of CCCCCCCCCCCCCCCCCC(=O)NCCS(=O)(=O)O [N-Stearoyl Taurine], the “Effect on % phase separated vesicles” value is reported as “↑”, the “Effect on Pang(ϕ)” value is reported as “↑” and the “% phase separated z-score” value is reported as 3.21. For the same compound, the Pordered z-score was 2.89.

For O=c1[nH]c(-c2ccc(C(F)(F)F)cc2)nc2c1CSCC2 [XAV939, 3,5,7,8-tetrahydro-2-[4-(trifluoromethyl)phenyl]-4H-thiopyrano[4,3-d]pyrimidin-4-one], the “Effect on % phase separated vesicles” value was “↑”, the “% phase separated z-score” value was 2.33 and the Pordered z-score was 0.58.

In the case of C=C(C)[C@@H]1CCC(C)=C[C@H]1c1c(C)cc(O)cc1O [O-1602, 5-methyl-4-[(1R,6R)-3-methyl-6-(1-methylethenyl)-2-cyclohexen-1-yl] -1,3-benzenediol], the “Effect on % phase separated vesicles” value is reported as “↓”, the “% phase separated z-score” value is reported as −2.10 and the Pordered z-score is reported as −0.27.

For CC1(COc2ccc(CC3SC(=O)NC3=O)cc2)CCCCC1 (stereo not shown) [Ciglitazone], the “% phase separated z-score” value was −2.73 and the Pordered z-score was −1.71.

For CCCCC/C=C\C/C=C\C/C=C\C/C=C\CCCC(=O)NCCF [Arachidonoyl-2′-Fluoroethylamide], the “Effect on Pang(ϕ)” value was “↑”, the “% phase separated z-score” value was 1.90 and the Pordered z-score was 2.38.

In the case of (−)-Epigallocatechin Gallate, the “Effect on % phase separated vesicles” value is reported as “↑”, the “% phase separated z-score” value is reported as 4.33 and the Pordered z-score is reported as 1.42.

With CCCCC/C=C\C/C=C\CCCCCCCCCC(=O)O [11(Z),14(Z)-Eicosadienoic Acid] the “Effect on % phase separated vesicles” value was “↓”, the “% phase separated z-score” value was −2.15 and the Pordered z-score was −0.46.

CC(C)c1ccc2c(c1)c(SC(C)(C)C)c(CC(C)(C)C(=O)O)n2Cc1ccc(Cl)cc1 [MK-886, 1-[(4-chlorophenyl)methyl]-3-[(1,1-dimethylethyl)thio]-α,α-dimethyl-5-(1-methylethyl)-1H-indole-2-propanoic acid] was tested, and the “Effect on Pang(ϕ)” value was “↑”, the “% phase separated z-score” value was 0.67 and the Pordered z-score was 2.10.

With CCCCCCCC/C=C\CCCCCCCC(=O)OC[C@@H](COP(O)(O)=S)OC.CCN(CC)CC.CCN(CC)CC [(2S)-OMPT, 9Z-octadecenoic acid, (2S)-3-[(hydroxymercaptophosphinyl)oxy]-2-methoxypropyl ester, triethyl ammonium salt (1:2)] the “Effect on % phase separated vesicles” value was “↓”, the “% phase separated z-score” value was −2.12 and the Pordered z-score was −0.27.

In the case of COc1ccc(/C=C\c2cc(OC)cc(OC)c2)cc1 [cis-trismethoxy Resveratrol], the “Effect on % phase separated vesicles” value is reported as “↓”, the “% phase separated z-score” value is reported as −2.45 and the Pordered z-score is reported as −1.61.

In the case of Cl.c1cc(N2CCNCC2)c2cnccc2c1 [8-piperazin-1-yl-Isoquinoline (hydrochloride)], the “Effect on % phase separated vesicles” value is reported as “↑”, the “% phase separated z-score” value is reported as 2.14 and the Pordered z-score is reported as 1.61.

For CCCCCCCCCCCCCCCCSP(=O)([O-])OCC[N+](C)(C)C [thio-Miltefosine], the “Effect on % phase separated vesicles” value was “↑”, the “Effect on Pang(ϕ)” value was “↑” and the “% phase separated z-score” value was 2.12. The Pordered z-score was 2.78.

In the case of CCCCCCCCCCCCC/C=C/[C@@H](O)[C@H](CO)N(C)C [N,N-Dimethylsphingosine (d18:1)], the “Effect on % phase separated vesicles” value is reported as “↓”, the “% phase separated z-score” value is reported as −2.09 and the Pordered z-score is reported as −0.70.

For CCCCCCCCCCCCCCCCOC[C@H](COP(=O)([O-])OCC[N+](C)(C)C)OC [2-O-methyl PAF C-16, 1-O-hexadecyl-2-O-methyl-sn-glyceryl-3-phosphorylcholine], the “Effect on Pang(ϕ)” value was “↑”, the “% phase separated z-score” value was −1.06 and the Pordered z-score was 2.68.

With CCCCCCCCCCCCCCCCOC[C@H](COP(=O)([O-])OCC[N+](C)(C)C)OC(C)=O [PAF C-16, 1-O-hexadecyl-2-O-acetyl-sn-glyceryl-3-phosphorylcholine] the “Effect on % phase separated vesicles” value was “↓”, the “% phase separated z-score” value was −2.00 and the Pordered z-score was 1.87.
